What was measured:
Format in all cases: in vivo
black bean aphids = experiment: Aphids: seedling of the field bean with black bean aphids sprayed; dead and surviving aphids counted; settings: stated logarithmically (3 = 10^^-3 g/cm^3); for LD50 concentration based on insect-poison: I:P 100:0; for LD50 concentration (refers to the propynyl benzyl ether itself): I:P 0:100, ether alone
Protocol: For each test, one seedling of the field bean with ca 50-100 black bean aphids is sprayed with a solution of the active ingredient(s) in acetone or an aqueous spray-wash of the active ingredient(s). The seedlings are individually placed in tubes in water. After 24 and 48 hours, the dead and surviving aphids are counted and the activity calculated in %.

spider-mites = experiment: Spider-mites on sprayed leaf discs, assessment based on the mortality of the spider-mites (W); settings: stated logarithmically (3 = 10^^-3 g/cm^3); for LD50 concentration based on insect-poison (W, mortality of the spider-mites): I:P 100:0; for LD50 concentration (W, mortality of the spider-mites; refers to the propynyl benzyl ether itself): I:P 0:100, ether alone
Protocol: (§1) For each test, three beam leaf discs each with a 2-day infection and with 20-40 spider-mites and eggs are sprayed with a solution of the active ingredient(s) in acetone or an aqueous spray-wash of the active ingredient(s). The dosage for each treated surface is 10^^-5 g/cm^2 = 1 kg/ha. After 2 days, the discs are assessed for dead spider-mites and after 6 days for dead spider-mites and killed eggs. (Assessment scheme: from 0-5, where 0 = 0% and 5 = 100% mortality).
W = assessment based on the mortality of the spider-mites;

flies = experiment: Flies: placed in sprayed petri dishes; dead or crippled flies counted; settings: after 24 hours, stated logarithmically (3 = 10^^-3 g/cm^3); for LD50 concentration based on insect-poison: I:P 100:0
Protocol: For each test, two petri dishes are sprayed with a solution of the active ingredient(s) in acetone or an aqueous spray-wash of the active ingredient(s). The dosage for each treated surface is 10^^-5 g/cm^2 = 1 kg/ha. After 2-3 hours, 10 flies aged 4-5 days are placed in each petri dish. After 1, 3 and 24 hours, the flies which are dead or crippled are counted.

spider-mite eggs = experiment: Spider-mites on sprayed leaf discs, assessment based on the mortality of the eggs (O); settings: stated logarithmically (3 = 10^^-3 g/cm^3), 8640 min; for LD50 concentration (O, mortality of the eggs; refers to the propynyl benzyl ether itself): I:P 0:100, ether alone
Protocol: as §1
O = assessment based on the mortality of the eggs.

[1] = Malathion group, I:P 0:100, ether alone
[2] = Methoxychlor group, I:P 0:100, ether alone
[3] = Sevin group, I:P 0:100, ether alone

C=CCC1=C(C)C(OC(=O)C2C(C=C(C)C)C2(C)C)CC1=O (mixture of isomers) [Allethrin, 2-allyl-4-hydroxy-3-methyl-2-cyclopenten-1-one esterified with a mixture of cis and trans 2,2-dimethyl-3-(2-methylpropenyl)-cyclopropanecarboxylic acid, reference compound]
LD50 concentration based on insect-poison (black bean aphids; Allethrin alone): 5.0 | LD50 concentration based on insect-poison (W, mortality of the spider-mites) (spider-mites; Allethrin alone): 3.4 | LD50 concentration based on insect-poison (flies; Allethrin alone): 5.5 | LD50 concentration based on insect-poison (O, mortality of the eggs) (spider-mite eggs; Allethrin alone, I:P 100:0): < 3

C#CCOCc1ccc2c(c1)OCO2 [A, 3,4-(methylenedioxy)-α-(2-propynyloxy)-toluene]
LD50 concentration (refers to the propynyl benzyl ether itself) (black bean aphids; Allethrin group): 3.0 | LD50 concentration (refers to the propynyl benzyl ether itself) (black bean aphids; Methoxychlor group): 3.0 | LD50 concentration (W, mortality of the spider-mites; refers to the propynyl benzyl ether itself) (spider-mites; Sevin group): < 2 | LD50 concentration (refers to the propynyl benzyl ether itself) (flies; [1]): > 3.5 | LD50 concentration (refers to the propynyl benzyl ether itself) (flies; [2]): > 3.5 | LD50 concentration (refers to the propynyl benzyl ether itself) (flies; [3]): 3.5

C#CCOCc1ccc(OC)c(OC)c1 [B, 3,4-dimethoxy-α-(2-propynyloxy)-toluene]
LD50 concentration (refers to the propynyl benzyl ether itself) (black bean aphids; Allethrin group): 3.0 | LD50 concentration (refers to the propynyl benzyl ether itself) (black bean aphids; Malathion group): 3.3 | LD50 concentration (refers to the propynyl benzyl ether itself) (black bean aphids; Methoxychlor group): 3.3 | LD50 concentration (W, mortality of the spider-mites; refers to the propynyl benzyl ether itself) (spider-mites; Allethrin group): 3.0 | LD50 concentration (W, mortality of the spider-mites; refers to the propynyl benzyl ether itself) (spider-mites; Malathion group): 3.0 | LD50 concentration (W, mortality of the spider-mites; refers to the propynyl benzyl ether itself) (spider-mites; Methoxychlor group): 3.0 | LD50 concentration (W, mortality of the spider-mites; refers to the propynyl benzyl ether itself) (spider-mites; Sevin group): 3.0 | LD50 concentration (refers to the propynyl benzyl ether itself) (flies; Allethrin group, I:P printed 0:10, ether alone): 3.3 | LD50 concentration (refers to the propynyl benzyl ether itself) (flies; [1]): 3.3 | LD50 concentration (refers to the propynyl benzyl ether itself) (flies; [2]): 3.3 | LD50 concentration (refers to the propynyl benzyl ether itself) (flies; [3]): 3.5 | LD50 concentration (O, mortality of the eggs; refers to the propynyl benzyl ether itself) (spider-mite eggs; Allethrin group): 2.7 | LD50 concentration (O, mortality of the eggs; refers to the propynyl benzyl ether itself) (spider-mite eggs; Methoxychlor group): 2.7 | LD50 concentration (O, mortality of the eggs; refers to the propynyl benzyl ether itself) (spider-mite eggs; Sevin group): 2.7

CCOC(=O)CC(SP(=S)(OC)OC)C(=O)OCC (stereo not drawn) [Malathion, S-[1,2-bis-(carbethoxy)-ethyl]-0,0-dimethyl-dithiophosphate, reference compound]
LD50 concentration based on insect-poison (black bean aphids; Malathion alone): 5.1 | LD50 concentration based on insect-poison (W, mortality of the spider-mites) (spider-mites; Malathion alone): < 4 | LD50 concentration based on insect-poison (flies; Malathion alone): 5.1

Source: US3946040A, “Propynyl benzyl ethers” (Hoffmann-La Roche Inc., priority 1973, dated 1976)
